Experiment [1] addresses T1, α4β2 nAChR Subtype (Rattus norvegicus, UniProt P09483+P12390).
T1 construct: The cerebral cortex was removed and placed in 20 volumes (weight:volume) of ice-cold preparative buffer; from tissue; host or cells: rat cerebral cortex membranes
Briefly: Radioligand binding ([3H]nicotine) at rat α4β2 nAChR subtype, rat cerebral cortex membranes. As for the experimental part: (§1) Rats (female, Sprague-Dawley), weighing 150-250 g, were maintained on a 12 h light/dark cycle and were allowed free access to water and food supplied by PMI Nutrition International, Inc. Animals were anesthetized with 70% CO2, then decapitated. Brains were removed and placed on an ice-cold platform. The cerebral cortex was removed and placed in 20 volumes (weight:volume) of ice-cold preparative buffer (137 mM NaCl, 10.7 mM KCl, 5.8 mM KH2PO4, 8 mM Na2HPO4, 20 mM HEPES (free acid), 5 mM iodoacetamide, 1.6 mM EDTA, pH 7.4); PMSF, dissolved in methanol to a final concentration of 100 μM, was added and the suspension was homogenized by Polytron. The homogenate was centrifuged at 18,000×g for 20 min at 4° C. and the resulting pellet was re-suspended in 20 volumes of ice-cold water. After 60 min incubation on ice, a new pellet was collected by centrifugation at 18,000×g for 20 min at 4° C. The final pellet was re-suspended in 10 volumes of buffer and stored at −20° C. On the day of the assay, tissue was thawed, centrifuged at 18,000×g for 20 min, and then re-suspended in ice-cold PBS (Dulbecco's Phosphate Buffered Saline, 138 mM NaCl, 2.67 mM KCl, 1.47 mM KH2PO4, 8.1 mM Na2HPO4, 0.9 mM CaCl2, 0.5 mM MgCl2, Invitrogen/Gibco, pH 7.4) to a final concentration of approximately 4 mg protein/mL. Protein was determined by the method of Lowry et al., J. Biol. Chem. 193: 265 (1951), using bovine serum albumin as the standard.
The binding of [^3H]nicotine was measured using a modification of the methods of Romano et al., Science 210: 647 (1980) and Marks et al., Mol. Pharmacol. 30: 427 (1986). The [^3H]nicotine (Specific Activity=81.5 Ci/mmol) was obtained from NEN Research Products. The binding of [^3H]nicotine was measured using a 3 h incubation at 4° C. Incubations were conducted in 48-well micro-titre plates and contained about 400 μg of protein per well in a final incubation volume of 300 μL. The incubation buffer was PBS and the final concentration of [^3H]nicotine was 5 nM. The binding reaction was terminated by filtration of the protein containing bound ligand onto glass fiber filters (GF/B, Brandel) using a Brandel Tissue Harvester at 4° C. Filters were soaked in de-ionized water containing 0.33% polyethyleneimine to reduce non-specific binding. Each filter was washed with ice-cold buffer (3×1 mL). Non-specific binding was determined by inclusion of 10 μM non-radioactive L-nicotine (Acros Organics) in selected wells.
The inhibition of [^3H]nicotine binding by test compounds was determined by including seven different concentrations of the test compound in selected wells. Each concentration was replicated in triplicate. IC50 values were estimated as the concentration of compound that inhibited 50 percent of specific [^3H]nicotine binding. Inhibition constants (Ki values), reported in nM, were calculated from the IC50 values using the method of Cheng et al., Biochem. Pharmacol. 22: 3099 (1973).

The target of experiment [2] is Human α4β2 (Homo sapiens, UniProt P17787+P43681). Briefly: Binding at human α4β2 subtype (Table 1).
Sequence of Human α4β2 (P43681 29-627 limits assumed): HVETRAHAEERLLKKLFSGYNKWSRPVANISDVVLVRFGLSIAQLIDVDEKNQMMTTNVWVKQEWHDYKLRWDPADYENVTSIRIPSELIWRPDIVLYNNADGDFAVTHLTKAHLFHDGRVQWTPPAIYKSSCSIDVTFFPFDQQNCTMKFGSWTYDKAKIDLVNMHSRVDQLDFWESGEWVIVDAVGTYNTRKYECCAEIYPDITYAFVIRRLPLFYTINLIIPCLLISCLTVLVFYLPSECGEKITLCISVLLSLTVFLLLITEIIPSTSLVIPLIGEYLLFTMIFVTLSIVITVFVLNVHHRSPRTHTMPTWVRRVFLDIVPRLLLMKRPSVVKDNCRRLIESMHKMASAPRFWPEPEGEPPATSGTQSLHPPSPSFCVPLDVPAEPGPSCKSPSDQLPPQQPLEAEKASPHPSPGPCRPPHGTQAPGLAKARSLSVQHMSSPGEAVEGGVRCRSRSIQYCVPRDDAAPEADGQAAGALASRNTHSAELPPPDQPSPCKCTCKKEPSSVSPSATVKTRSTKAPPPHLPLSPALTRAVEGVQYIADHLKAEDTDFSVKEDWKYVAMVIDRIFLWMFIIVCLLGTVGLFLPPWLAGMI
Sequence of Human α4β2 (P17787 26-502): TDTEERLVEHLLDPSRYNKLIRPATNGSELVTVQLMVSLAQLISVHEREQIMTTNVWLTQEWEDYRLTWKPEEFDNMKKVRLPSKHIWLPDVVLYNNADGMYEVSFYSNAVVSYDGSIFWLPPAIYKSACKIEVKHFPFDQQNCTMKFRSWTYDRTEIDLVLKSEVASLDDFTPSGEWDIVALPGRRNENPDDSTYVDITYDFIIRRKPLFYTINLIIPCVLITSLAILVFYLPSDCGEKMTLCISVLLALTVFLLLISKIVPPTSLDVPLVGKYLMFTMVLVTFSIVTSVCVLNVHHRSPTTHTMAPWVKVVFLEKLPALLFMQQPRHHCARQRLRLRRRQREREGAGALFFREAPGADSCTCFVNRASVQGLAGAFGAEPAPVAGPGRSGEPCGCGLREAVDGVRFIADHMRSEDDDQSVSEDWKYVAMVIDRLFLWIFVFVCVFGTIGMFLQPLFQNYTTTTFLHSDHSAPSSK
The target of experiment [3] is T2, α7 nAChR Subtype (Rattus norvegicus, UniProt Q05941).
T2 construct: The hippocampus was removed and placed in 10 volumes (weight:volume) of ice-cold preparative buffer; from tissue; host or cells: rat hippocampus membranes
T2 sequence (Q05941 23-502): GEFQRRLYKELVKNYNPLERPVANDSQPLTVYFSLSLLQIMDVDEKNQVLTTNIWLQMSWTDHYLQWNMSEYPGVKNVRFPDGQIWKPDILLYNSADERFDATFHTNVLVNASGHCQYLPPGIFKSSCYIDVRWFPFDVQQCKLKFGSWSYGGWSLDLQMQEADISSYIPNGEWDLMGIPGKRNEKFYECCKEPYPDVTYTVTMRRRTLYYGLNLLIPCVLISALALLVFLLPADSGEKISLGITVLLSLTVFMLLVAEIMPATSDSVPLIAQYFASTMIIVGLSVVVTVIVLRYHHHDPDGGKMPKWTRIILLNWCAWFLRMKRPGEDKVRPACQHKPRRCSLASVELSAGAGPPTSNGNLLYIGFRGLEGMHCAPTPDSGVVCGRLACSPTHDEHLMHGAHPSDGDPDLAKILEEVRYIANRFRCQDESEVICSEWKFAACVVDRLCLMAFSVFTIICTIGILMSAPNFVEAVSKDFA
Briefly: Radioligand binding ([3H]MLA) at α7 nAChR subtype, rat hippocampus membranes; HTS at 5 μM. Conditions: for inhibition at 5 µM: 5 μM compound, 5 nM 3H-MLA, read-out: α7 high throughput screening (HTS) binding. Here is the method:
as §1, with “platform. The hippocampus was removed” for “platform. The cerebral cortex was removed”, “placed in 10 volumes (weight:volume)” for “placed in 20 volumes (weight:volume)”, “and the tissue suspension was” for “and the suspension was”, “re-suspended in 10 volumes of” for “re-suspended in 20 volumes of”, “of approximately 2 mg protein/mL.” for “of approximately 4 mg protein/mL.”
The binding of [^3H]MLA was measured using a modification of the methods of Davies et al., Neuropharmacol. 38: 679 (1999). [^3H]MLA (Specific Activity=25-35 Ci/mmol) was obtained from Tocris. The binding of [^3H]MLA was determined using a 2 h incubation at 21° C. Incubations were conducted in 48-well micro-titre plates and contained about 200 μg of protein per well in a final incubation volume of 300 μL. The incubation buffer was PBS and the final concentration of [^3H]MLA was 5 nM. The binding reaction was terminated by filtration of the protein containing bound ligand onto glass fiber filters (GF/B, Brandel) using a Brandel Tissue Harvester at room temperature. Filters were soaked in de-ionized water containing 0.33% polyethyleneimine to reduce non-specific binding. Each filter was washed with PBS (3×1 mL) at room temperature. Non-specific binding was determined by inclusion of 50 μM non-radioactive MLA in selected wells.
[…] Each concentration was replicated in triplicate. […] […] Pharmacol. 22: 3099-3108 (1973).

Where [4] appears, read: [3H]nicotine 5 nM, rat cortex, read-out: Rat α4β2 Ki.

SMILES strings stand for the structures. pKi: −log10 of the molar value. Where two headings read alike, the source gives them in different places.

T1 sequence (P09483 31-630): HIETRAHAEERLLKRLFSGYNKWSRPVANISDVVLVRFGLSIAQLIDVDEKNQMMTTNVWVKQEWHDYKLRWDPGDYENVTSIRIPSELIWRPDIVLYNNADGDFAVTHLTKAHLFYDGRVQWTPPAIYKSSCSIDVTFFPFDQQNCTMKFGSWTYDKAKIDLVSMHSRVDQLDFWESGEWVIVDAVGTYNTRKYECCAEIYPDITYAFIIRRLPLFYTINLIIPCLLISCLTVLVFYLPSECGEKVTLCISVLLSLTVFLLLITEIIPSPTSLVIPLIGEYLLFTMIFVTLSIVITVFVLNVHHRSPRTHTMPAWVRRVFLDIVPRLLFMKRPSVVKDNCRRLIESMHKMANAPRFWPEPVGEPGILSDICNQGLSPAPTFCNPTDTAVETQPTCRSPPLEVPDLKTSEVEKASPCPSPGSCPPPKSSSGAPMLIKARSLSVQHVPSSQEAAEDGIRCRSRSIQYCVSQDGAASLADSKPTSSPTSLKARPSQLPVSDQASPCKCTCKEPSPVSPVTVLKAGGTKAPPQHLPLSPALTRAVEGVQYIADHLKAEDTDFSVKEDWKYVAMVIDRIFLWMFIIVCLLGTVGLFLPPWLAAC
T1 sequence (P12390 25-500): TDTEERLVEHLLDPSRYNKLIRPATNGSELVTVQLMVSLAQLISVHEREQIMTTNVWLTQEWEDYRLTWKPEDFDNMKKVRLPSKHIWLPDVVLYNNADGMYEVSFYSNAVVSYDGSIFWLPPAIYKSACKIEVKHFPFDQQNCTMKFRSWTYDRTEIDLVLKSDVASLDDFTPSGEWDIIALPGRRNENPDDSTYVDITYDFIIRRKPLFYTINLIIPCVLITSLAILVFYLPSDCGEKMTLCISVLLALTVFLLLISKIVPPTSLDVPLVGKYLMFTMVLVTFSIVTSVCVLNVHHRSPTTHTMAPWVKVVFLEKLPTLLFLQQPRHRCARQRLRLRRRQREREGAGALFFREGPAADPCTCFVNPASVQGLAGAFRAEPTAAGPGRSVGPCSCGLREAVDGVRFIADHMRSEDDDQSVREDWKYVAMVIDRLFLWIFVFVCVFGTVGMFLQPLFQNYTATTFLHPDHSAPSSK

`O=C(c1ccc(Br)o1)N1C[C@H]2CN[C@H](C2)C1`: the pKi was 7.84 in experiment [1] and 8.17 in experiment [2] (read-out: Human α4β2 Ki). In addition, the inhibition at 5 µM in experiment [3] is no more than 50%.
On the same counts, the results for `N#Cc1coc(C(=O)N2C[C@@H]3CN[C@@H](C3)C2)c1` are 7.63, 7.31 and no more than 50%.
On the same counts, the results for `O=C(c1cnco1)N1C[C@H]2CN[C@H](C2)C1` are 7.89, 7.85 and no more than 50%.
Regarding `O=C(c1ccncc1)N1CC2CNCC1C2` (stereo not drawn), the negative-log Ki (pKi) in experiment [1] (setting [4]) was 6.50; in experiment [2] (read-out: Human α4β2 Ki), 6.88. Further, the inhibition at 5 µM in experiment [3] is no more than 50%.
For `Cc1ccoc1C(=O)N1CC2CNC(C2)C1` (stereo not drawn), the pKi in experiment [2] (read-out: Human α4β2 Ki) was 8.47. In addition, in experiment [3], the inhibition at 5 µM was no more than 50%.
With `O=C(c1ccco1)N1CC2CCNC2C1` (stereo not drawn), the results for the pKi in experiment [1] (setting [4]) and in experiment [2] (read-out: Human α4β2 Ki) were 6.08 and 6.10, respectively. Also, the inhibition at 5 µM in experiment [3] is no more than 50%.
Turning to `Cc1cc(C(=O)N2C[C@H]3CN[C@H](C3)C2)no1`, the negative logarithm of the Ki (pKi) was 7.83 in experiment [1] and 7.77 in experiment [2] (read-out: Human α4β2 Ki). The inhibition at 5 µM in experiment [3] is no more than 50%.
Consider `O=C(c1ccco1)N1C[C@@H]2CN[C@@H](C2)C1`, for which the negative-log Ki (pKi) is 7.39 in experiment [1]; 7.77 in experiment [2] (read-out: Human α4β2 Ki); 5.99 in experiment [3] ([3H]MLA 5 nM, rat hippocampus).
On to `Cc1ccoc1C(=O)N1CC2CNCC1C2` (stereo not drawn), for which the negative logarithm of the Ki (pKi) was 6.86 in experiment [1] (setting [4]) and 7.02 in experiment [2]. Also, the inhibition at 5 µM in experiment [3] is no more than 50%.
On to `Cc1occc1C(=O)N1C[C@H]2CN[C@H](C2)C1`, for which the pKi in experiment [1] was 7.76; in experiment [2] (read-out: Human α4β2 Ki), 7.96. The inhibition at 5 µM in experiment [3] was no more than 50%.
On the same counts, the results for `O=C(c1ccc(Br)o1)N1C[C@@H]2CN[C@@H](C2)C1` [drawing 16] are 7.41, 7.37 and no more than 50%.
With `Cc1ncoc1C(=O)N1CCC2NCC2C1` (stereo not drawn), the negative-log Ki (pKi) in experiment [2] (read-out: Human α4β2 Ki) is 6.10. In addition, in experiment [3], the inhibition at 5 µM is no more than 50%.
As for `Cc1cc(C(=O)N2C[C@@H]3CN[C@@H](C3)C2)no1`, the pKi in experiment [1] (setting [4]) is 6.07; in experiment [2] (read-out: Human α4β2 Ki), 6.30. The inhibition at 5 µM in experiment [3] is no more than 50%.
On to `O=C(c1cccs1)N1C[C@H]2CN[C@H](C2)C1`, for which the results for the pKi in experiment [1] and in experiment [2] (read-out: Human α4β2 Ki) were 8.23 and 8.14, respectively. In addition, in experiment [3], the inhibition at 5 µM was no more than 50%.
The corresponding values for `O=C(c1ccc(F)o1)N1C[C@H]2CN[C@H](C2)C1` are 8.07, 8.16 and no more than 50%.
For the compound `Cc1coc(C(=O)N2C[C@@H]3CN[C@@H](C3)C2)c1`, the pKi was 7.53 in experiment [1] and 7.29 in experiment [2] (read-out: Human α4β2 Ki). In addition, the inhibition at 5 µM in experiment [3] is no more than 50%.
Regarding `O=C(c1ccno1)N1C[C@H]2CN[C@H](C2)C1`, the figures for the negative-log Ki (pKi) in experiment [1] and in experiment [2] (read-out: Human α4β2 Ki) were 7.99 and 7.94, respectively. Besides, the inhibition at 5 µM in experiment [3] is no more than 50%.
Regarding `O=C(c1ccncc1)N1CC2CNC(C2)C1` (stereo not drawn), in experiment [2] (read-out: Human α4β2 Ki), the pKi was 7.53. For the same compound, in experiment [3], the inhibition at 5 µM is no more than 50%.
`O=C(c1ccc(F)o1)N1C[C@@H]2CN[C@@H](C2)C1`: the negative logarithm of the Ki (pKi) in experiment [1] was 8.03; in experiment [2] (read-out: Human α4β2 Ki), 7.84. The inhibition at 5 µM in experiment [3] was no more than 50%.
As for `COc1cc(C(=O)N2CC3CNCC2C3)on1` (stereo not drawn), the values for the pKi in experiment [1] (setting [4]) and in experiment [2] (read-out: Human α4β2 Ki) were 6.71 and 6.51, respectively. Also, the inhibition at 5 µM in experiment [3] is no more than 50%.
On the same counts, the results for `Cc1nocc1C(=O)N1CC2CCNC2C1` (stereo not drawn) are 6.65, 6.19 and no more than 50%.
On the same counts, the results for `Cc1nocc1C(=O)N1CC2CCNCC2C1` (stereo not drawn) are 6.05, 6.05 and no more than 50%.
Consider `COc1cc(C(=O)N2CC3CNC(C3)C2)on1` (stereo not drawn), for which the negative logarithm of the Ki (pKi) in experiment [1] is 8.30; in experiment [2] (read-out: Human α4β2 Ki) it was 8.43. Also, in experiment [3], the inhibition at 5 µM is no more than 50%.
Consider `Cc1ncoc1C(=O)N1CC2CNCCC21` (stereo not drawn), for which the pKi in experiment [2] (read-out: Human α4β2 Ki) is 6.29. Further, the inhibition at 5 µM in experiment [3] was no more than 50%.
Turning to `O=C(c1cc(Br)no1)N1CC2CNC(C2)C1` (stereo not drawn), the results for the pKi in experiment [1] and in experiment [2] (read-out: Human α4β2 Ki) were 8.47 and 8.55, respectively. Further, the inhibition at 5 µM in experiment [3] was no more than 50%.
As for `O=C(c1ccco1)N1CCC2CNCC21` (stereo not drawn), the values for the pKi in experiment [1] (setting [4]) and in experiment [2] (read-out: Human α4β2 Ki) were 6.22 and 6.07, respectively. Besides, the inhibition at 5 µM in experiment [3] was no more than 50%.
With `Cc1ncoc1C(=O)N1C[C@H]2CN[C@H](C2)C1`, the negative logarithm of the Ki (pKi) in experiment [1] is 8.05; in experiment [2] (read-out: Human α4β2 Ki), 8.34. Besides, the inhibition at 5 µM in experiment [3] was no more than 50%.
For `O=C(c1cccnc1)N1CC2CNC(C2)C1` (stereo not drawn), the pKi in experiment [2] (read-out: Human α4β2 Ki) is 6.44. For the same compound, in experiment [3], the inhibition at 5 µM was no more than 50%.
As to `Cc1ncoc1C(=O)N1CC2CCNCC2C1` (stereo not drawn), the negative logarithm of the Ki (pKi) is 6.02 in experiment [1] (setting [4]) and 6.67 in experiment [2] (read-out: Human α4β2 Ki). The inhibition at 5 µM in experiment [3] was no more than 50%.
For `O=C(c1cc(Br)no1)N1C[C@H]2CN[C@H](C2)C1`, the negative-log Ki (pKi) was 8.46 in experiment [1] and 8.74 in experiment [2] (read-out: Human α4β2 Ki). For the same compound, the inhibition at 5 µM in experiment [3] was no more than 50%.
The corresponding values for `O=C(c1cc(Cl)co1)N1C[C@@H]2CN[C@@H](C2)C1` are 7.51, 7.38 and no more than 50%.
For `O=C(c1cnco1)N1C[C@@H]2CN[C@@H](C2)C1`, the pKi in experiment [1] is 7.15; in experiment [2] (read-out: Human α4β2 Ki), 7.07. For the same compound, the inhibition at 5 µM in experiment [3] was no more than 50%.
In the case of `O=C(c1ccoc1)N1C[C@H]2CN[C@H](C2)C1`, the pKi in experiment [1] is 7.97; in experiment [2] (read-out: Human α4β2 Ki), 7.98. For the same compound, the inhibition at 5 µM in experiment [3] was no more than 50%.
Turning to `O=C(c1ccc(Cl)o1)N1C[C@@H]2CN[C@@H](C2)C1`, the negative logarithm of the Ki (pKi) in experiment [1] was 7.40; in experiment [2] (read-out: Human α4β2 Ki), 7.57. The inhibition at 5 µM in experiment [3] is no more than 50%.
With `O=C(c1ccco1)N1CC2CNCC1C2` (stereo not drawn), in experiment [2] (read-out: Human α4β2 Ki), the negative-log Ki (pKi) is 6.66. Further, in experiment [3], the inhibition at 5 µM is no more than 50%.

The record behind these values is patent US20100144700A1, “HETEROCYCLIC-CARBONYL-DIAZABICYCLOALKANES AS MODULATORS OF THE NEURONAL NICOTINIC ACETYLCHOLINE ALPHA 4 BETA 2, SUBTYPE RECEPTOR FOR THE TREATMENT OF CNS RELATED DISORDERS” (TARGACEPT, INC., priority 2007, published 2010).
